Experimental data from patent US20250120942A1, “BRAIN FUNCTION IMPROVING AGENT” (OSAKA UNIVERSITY, priority 2021, published 2025).

How the values were obtained:
[1] = test system: mouse reared in long-term isolation; experiment: Novel object recognition test in psychiatric disorder model mouse reared in long-term isolation, single oral dose (Test Example 3); assay type: in vivo, ddY mouse; conditions: tested 24 hours after administration; for exploratory time of the novel object versus Vehicle group: FIG. 3(A)
Experimental: The action of ameliorating the lowering of the object cognitive function was examined by orally administering the compound A to the mouse reared in long-term isolation. […] In this test, the mouse reared in long-term isolation under the following condition was used as the psychiatric disorder model mouse.
(§1) 3-weeks-old male ddY mice were purchased from Japan SLC, Inc. The mice were reared in the rearing chamber provided with air conditioner (Conditions: the temperature was 22° C.±1° C., the relative humidity was 50±10%, and the irradiation time was 12 hours (8:00 to 20:00)). The feeding method was that the commercially available MF powdery feed (manufactured by Oriental Yeast Co., ltd.) and tap water were taken freely.
3-weeks-old male ddY mice (n=63) were separately reared in the gray opaque cage (24×17×12 cm) in which the mice could not see the surrounding of the cage for 6 weeks. […] The mice (n=20) collectively reared in a group of 5 mice in the transparent cage (24×17×12 cm) were used as a control group.
Four days prior to the start of the experiment, long-term isolation and group-reared mice were individually acclimated to the test observation box for 10 minutes for three consecutive days. […]
24 hours after the oral administration, the evaluation test for novel object cognitive function was carried out. One object of two objects put in the observation box was replaced with the novel object and the time how long the mouse explored the novel object was measured in the test time of 5 minutes. The object cognitive function of the mouse was evaluated by Discrimination index (%) calculated using the following formula. […]
From the results obtained, the mean (Mean) and the standard error (SEM) were calculated. The significant difference was assessed between the administration group and the control group by using Student's t-test as a method of the statistical processing of the exploratory time and by using Turkey-Kramer's test as a method of the statistical processing of Discrimination index. […]

[2] = test system: mouse reared in long-term isolation; experiment: Novel object recognition test after long-term administration in feed during isolated rearing (Test Example 4); assay type: in vivo, ddY mouse; conditions: MF powdery feed containing 7 mg/100 g for 5 weeks of isolation; FIG. 4(A),(B)
Experimental: The compound A was orally administered for a long time and the effect of preventing the onset of cognitive dysfunction caused by the long-term isolated rearing was examined.
as §1, with “(under the condition that” for “(Conditions:”, “freely. […]” for “freely.”
After the long-term rearing of 5 weeks, the object cognitive function was evaluated by the same method as that described in Test Example 3 and the effect of preventing the onset of cognitive dysfunction by administering the compound A during the long-term rearing was examined.
From the results obtained, the mean (Mean) and the standard error (SEM) were calculated. The significant difference of exploratory time in each group was assessed by using Student's t-test and the significant differences between the control group and Vehicle group and between the administration group of compound A and Vehicle group of Discrimination index were assessed by using Turkey-Kramer's test. […]

## O=C1CC[C@H](Cc2cc(O)cc(O)c2)O1 [compound A, (R)-5-(3,5-dihydroxyphenyl)-γ-valerolactone]
[1]; oral 10 mg/kg
  exploratory time of the novel object versus Vehicle group: significantly increased
[1]; oral 30 mg/kg
  exploratory time of the novel object versus Vehicle group: significantly increased
[1]; oral 30 mg/kg, FIG. 3(B)
  Discrimination index: equal to the score obtained in the group of the mice reared in a group
[2]
  onset of cognitive dysfunction caused by long-term isolated rearing stress (exploratory time and Discrimination index): significantly inhibited
